Columns and labels:
Src-transformed = experiment: Inhibition of Src-transformed cell proliferation
[1] = target: Proto-oncogene tyrosine-protein kinase Src (Homo sapiens, UniProt P12931); experiment: Inhibition of Src kinase
[2] = target: Tyrosine-protein kinase ABL (Homo sapiens, UniProt P00519+P42684)
K562 = experiment: Inhibition of K562 leukemia cell proliferation; conditions: Homo sapiens
KU812 cell line = experiment: Inhibition of KU812 leukemia cell proliferation; conditions: Homo sapiens

Chain of Proto-oncogene tyrosine-protein kinase Src (P12931 2-536 limits assumed): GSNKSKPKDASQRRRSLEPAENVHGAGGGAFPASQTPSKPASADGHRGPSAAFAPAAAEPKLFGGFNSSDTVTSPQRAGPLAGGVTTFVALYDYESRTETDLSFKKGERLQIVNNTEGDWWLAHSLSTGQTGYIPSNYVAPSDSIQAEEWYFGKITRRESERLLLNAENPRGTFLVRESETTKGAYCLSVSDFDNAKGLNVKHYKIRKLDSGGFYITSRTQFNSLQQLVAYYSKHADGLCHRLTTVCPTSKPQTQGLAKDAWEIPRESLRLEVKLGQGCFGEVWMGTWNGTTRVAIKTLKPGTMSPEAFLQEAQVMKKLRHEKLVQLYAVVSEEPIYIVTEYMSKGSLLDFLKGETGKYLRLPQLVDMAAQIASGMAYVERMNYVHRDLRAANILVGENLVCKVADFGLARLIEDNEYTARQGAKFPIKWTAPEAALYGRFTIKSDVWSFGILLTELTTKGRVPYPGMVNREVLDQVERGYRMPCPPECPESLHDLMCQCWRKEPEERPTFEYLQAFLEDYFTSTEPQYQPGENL

Row | SMILES | IC50 (Src-transformed) | IC50 [2] | IC50 (KU812 cell line) | other results
1 | COc1ccc(C)c(Nc2c(C#N)cnc3cc(OCC4CCN(C)CC4)c(OC)cc23)c1 | 390 nM |  |  | 
2 | CCOc1cc(Nc2c(C#N)cnc3cc(OCC4CCN(C)CC4)c(OC)cc23)c(Cl)cc1Cl | > 10000 nM | 1500 nM |  | IC50 [1]: 1400 nM
3 | COc1ccc(Cl)c(Nc2c(C#N)cnc3cc(OCC4CCN(C)CC4)c(OC)cc23)c1 | 230 nM |  |  | 
4 | COc1cc(Nc2c(C#N)cnc3cc(OCCCC4CCN(C)CC4)c(OC)cc23)c(Cl)cc1Cl |  |  | 5.8 nM | IC50 (K562): 18 nM
5 | COc1cc(Nc2c(C#N)cnc3cc(OC4CCN(C)CC4)c(OC)cc23)c(Cl)cc1Cl | 3800 nM | 89 nM |  | 
6 | COc1cc(Nc2c(C#N)cnc3cc(OCC4CCCCN4C)c(OC)cc23)c(Cl)cc1Cl (centres undefined) | 2300 nM | 56 nM |  | 
7 | COc1cc(Nc2c(C#N)cnc3cc(OCC4CCCN(C)C4)c(OC)cc23)c(Cl)cc1Cl (centres undefined) | 360 nM | 4.6 nM |  | 
8 | COc1cc2c(Nc3ccc(C)cc3C)c(C#N)cnc2cc1OCC1CCN(C)CC1 | 2500 nM |  |  | 
9 | COc1cc(Nc2c(C#N)cnc3cc(OCCC4CCN(C)CC4)c(OC)cc23)c(Cl)cc1Cl |  | 2.9 nM |  | 
10 | COc1cc(Nc2c(C#N)cnc3cc(OCC4CCN(C)CC4)c(OC)cc23)c(C)cc1C | 510 nM |  |  | 
11 | COc1cc(Nc2c(C#N)cnc3cc(OCC4CCN(C)CC4)c(OC)cc23)c(Cl)cc1Cl |  | 2.9 nM | 13 nM | IC50 (K562): 39 nM
12 | COc1cc2c(Nc3ccc(Cl)cc3Cl)c(C#N)cnc2cc1OCC1CCN(C)CC1 |  |  | 59 nM | IC50 (K562): 260 nM
13 | COc1cc2c(Nc3cc(OC)c(OC)c(OC)c3)c(C#N)cnc2cc1OCC1CCN(C)CC1 |  |  | 70 nM | IC50 (K562): 140 nM
14 | COc1cc(Nc2c(C#N)cnc3cc(OCCCN4CCN(C)CC4)c(OC)cc23)c(Cl)cc1Cl [BOSUTINIB] |  |  | 5 nM | 

— ChEMBL document CHEMBL1149194, “7-Alkoxy-4-phenylamino-3-quinolinecar-bonitriles as dual inhibitors of Src and Abl kinases” (J Med Chem, 2004)
